# According to patent publication US20180312493A1, “Antibiotic Compounds, Pharmaceutical Formulations Thereof And Methods And Uses Therefor” (Simon Fraser University, priority 2015, published 2018):
# Legend:
# MRSA Pyk = biological target: T1, MRSA Pyk (Staphylococcus aureus, UniProt Q6GG09); assay: MRSA pyruvate kinase (PK) activity, continuous LDH-coupled assay; type: biochemical, methicillin resistant S. aureus (MRSA252)
# T1 construct: made in house; host or cells: E. coli BL-21 (DE3)
# Procedure, shortened: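 His-tagged MRSA PK (strain Sanger 252) and human PK isoforms expressed in E. coli BL-21 (DE3) and Ni-NTA purified, used at 15 nM in an LDH-coupled assay following NADH oxidation at 340 nm, 30° C, up to 5 min, ≤1% DMSO. IC50 from four-parameter variable-slope fit; Ki with PEP 2-20 mM, ADP fixed 2 mM, inhibitor 0-400 nM.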
# S. aureus (ATCC29213) = assay: In vitro susceptibility, broth microdilution (MIC); type: cell-based; settings: Staphylococcus aureus; S. aureus ATCC29213; 18-24 h, 37 C; read-out: Antimicrobial activity (MIC) S. aureus ATCC29213
# Procedure, shortened: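 CLSI 2-fold serial broth microdilution; K. pneumoniae C238 grown in L-broth, S. aureus ATCC 29213 in Mueller Hinton broth, plates incubated 18–24 h at 37 °C. MIC taken as lowest concentration giving complete growth inhibition by OD600 versus compound-free wells, background-subtracted.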
# [1] = test system: A. baumannii (ATCC 17978); assay: In vitro susceptibility, broth microdilution (MIC); type: cell-based; settings: Acinetobacter baumannii, ATCC17978; A. baumannii ATCC 17978 (values marked *); read-out: Antimicrobial activity (MIC) A. baumannii
# Procedure, shortened: (§1)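 MIC determined by CLSI 2-fold broth microdilution in cation-adjusted Mueller–Hinton broth at ~2.5×10^5 CFU/ml, final compound 0.031–64 μg/ml, 18–24 h at 37 °C. MIC is the lowest concentration giving complete growth inhibition by background-corrected OD600 versus compound-free wells; duplicate or triplicate wells, replicated at least twice.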
# MRSA (ATCC BAA-1762) = assay: In vitro susceptibility, broth microdilution (MIC); type: cell-based, methicillin resistant S. aureus; settings: Staphylococcus aureus; MRSA ATCC BAA-1762; read-out: Antimicrobial activity (MIC) MRSA ATCC BAA1762
# Procedure, shortened: as §1
# VRE#2 (2010A) = assay: In vitro susceptibility, broth microdilution (MIC); type: cell-based, vancomycin resistant Enterococci; settings: VRE#2 (2010A); read-out: Antimicrobial activity (MIC) VRE#2
# Procedure, shortened: as §1
# T1 sequence (Q6GG09 whole entry): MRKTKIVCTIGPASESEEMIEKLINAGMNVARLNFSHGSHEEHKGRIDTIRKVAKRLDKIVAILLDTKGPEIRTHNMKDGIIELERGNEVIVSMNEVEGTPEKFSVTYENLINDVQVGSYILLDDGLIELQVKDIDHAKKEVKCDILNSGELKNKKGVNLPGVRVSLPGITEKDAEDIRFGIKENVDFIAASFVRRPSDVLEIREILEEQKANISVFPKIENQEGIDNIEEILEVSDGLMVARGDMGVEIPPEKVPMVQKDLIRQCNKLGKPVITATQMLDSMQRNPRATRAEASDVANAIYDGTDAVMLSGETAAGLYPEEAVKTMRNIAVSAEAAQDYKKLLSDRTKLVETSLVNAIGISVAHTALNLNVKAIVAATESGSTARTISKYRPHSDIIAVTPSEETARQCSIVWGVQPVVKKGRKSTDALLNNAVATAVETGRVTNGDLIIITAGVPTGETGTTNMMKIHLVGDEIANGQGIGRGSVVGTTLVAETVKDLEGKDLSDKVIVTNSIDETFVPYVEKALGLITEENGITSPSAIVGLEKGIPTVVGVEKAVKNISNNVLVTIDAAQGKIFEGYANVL
Structure (SMILES),IC50 (MRSA Pyk) [nM],MIC (S. aureus (ATCC29213)) [µg/mL],MIC [1] [µg/mL],MIC (MRSA (ATCC BAA-1762)) [µg/mL],MIC (VRE#2 (2010A)) [µg/mL]
"COC(=O)COc1cc2[nH]c(-c3cc4ccc(Br)cc4[nH]3)cc2cc1Cl [Compound 188, Methyl 2-((6′-bromo-5-chloro-1H,1′H-[2,2′-biindol]-6-yl)oxy)acetate]",< 100,> 64,> 64,–,–
"C[N+](C)(C)CCCNC(=O)c1c(-c2cc3cc(Cl)ccc3[nH]2)[nH]c2cc(Br)ccc12 [Compound 147, 3-(6-bromo-5′-chloro-1H,1′H-[2,2′-biindole]-3-carboxamido)-N,N,N-trimethylpropan-1-aminium]",< 100,16,> 64,16,16
"COCC(=O)N1CCCN(CCNC(=O)c2c(-c3cc4cc(Cl)ccc4[nH]3)[nH]c3cc(Br)ccc23)CC1 [Compound 121, 6-Bromo-5′-chloro-N-(2-(4-(2-methoxyacetyl)-1,4-diazepan-1-yl)ethyl)-1H,1′H-[2,2′-biindole]-3-carboxamide]",< 100,> 64,> 64,–,–
"CN(C)CCc1c(-c2nc3cc(Cl)c(Cl)cc3[nH]2)[nH]c2cc(Br)ccc12 [Compound 202, 2-(6-Bromo-2-(5,6-dichloro-1H-benzo[d]imidazol-2-yl)-1H-indol-3-yl)-N,N-dimethylethan-1-amine]",< 100,4,> 64,4,4
"O=C(NCCN1CCC[C@H]1C(=O)O)c1c(-c2cc3cc(Cl)ccc3[nH]2)[nH]c2cc(Br)ccc12 [Compound 125, (2-(6-Bromo-5′-chloro-1H,1′H-[2,2′-biindole]-3-carboxamido)ethyl)-L-proline]",< 100,> 64,> 64,–,–
"CN(C)c1cc[n+](CCCNC(=O)c2c(-c3cc4cc(Cl)ccc4[nH]3)[nH]c3cc(Br)ccc23)cc1 [Compound 145, 1-(3-(6-bromo-5′-chloro-1H, 1′H-[2,2′-biindole]-3-carboxamido)propyl)-4-(dimethylamino)pyridin-1-ium]",< 100,8,> 64,16,16
"O=C(COc1cc2[nH]c(-c3cc4ccc(Br)cc4[nH]3)cc2cc1Cl)NCCO [Compound 192, 2-((6′-Bromo-5-chloro-1H,1′H-[2,2′-biindol]-6-yl)oxy)-N-(2-hydroxyethyl)acetamide]",< 100,> 64,> 64,–,–
"CN(C)CCNC(=O)COc1cc2[nH]c(-c3cc4ccc(Br)cc4[nH]3)cc2cc1Cl [Compound 189, 2-((6′-Bromo-5-chloro-1H,1′H-[2,2′-biindol]-6-yl)oxy)-N-(2-(dimethylamino)ethyl)acetamide]",< 100,> 64,> 64,–,–
"O=C(NCCc1ccncc1)c1c(-c2cc3cc(Cl)ccc3[nH]2)[nH]c2cc(Br)ccc12 [Compound 142, 6-bromo-5′-chloro-N-(2-(pyridin-4-yl)ethyl)-1H,1′H-[2,2′-biindole]-3-carboxamide]",< 100,> 64,> 64,–,–
"O=C(Nc1ccc(Cl)c(Cl)c1)Nc1nc2cc(Br)ccc2s1 [Compound 155, 1-(5-bromobenzo[d]thiazol-2-yl)-3-(3,4-dichlorophenyl)urea]",–,0.5,> 64,0.5,0.5
"CN(C)CCn1c(-c2cc3ccc(Br)cc3[nH]2)nc2cc(Cl)c(Cl)cc21 [Compound 212, 2-(2-(6-Bromo-1H-indol-2-yl)-5,6-dichloro-1H-benzo[d]imidazol-1-yl)-N,N-dimethylethan-1-amine]",–,> 64,> 64,–,–
"O=C(NCCC[n+]1ccc2ccccc2c1)c1c(-c2cc3cc(Cl)ccc3[nH]2)[nH]c2cc(Br)ccc12 [Compound 146, 2-(3-(6-bromo-5′-chloro-1H,1′H-[2,2′-biindole]-3-carboxamido)propyl)isoquinolin-2-ium]",< 100,32,> 64,32,64
"O=C1CN(CCNC(=O)c2c(-c3cc4cc(Cl)ccc4[nH]3)[nH]c3cc(Br)ccc23)CCN1 [Compound 127, 6-bromo-5′-chloro-N-(2-(3-oxopiperazin-1-yl)ethyl)-1H,1′H-2,2′-biindole-3-carboxamide]",< 100,> 64,> 64,–,–
"COc1cc2sc(NC(=O)Nc3ccccc3)nc2cc1Br [Compound 153, 1-(5-bromo-6-methoxybenzo[d]thiazol-2-yl)-3-phenylurea]",–,> 64,> 64,–,–
"CCOC(CCCNC(=O)c1c(-c2cc3cc(Cl)ccc3[nH]2)[nH]c2cc(Br)ccc12)OCC [Compound 135, 6-Bromo-5′-chloro-N-(4,4-diethoxybutyl)-1H,1′H-[2,2′-biindole]-3-carboxamide]",–,> 64,> 64,–,–
"CC(=O)OCCCNC(=O)c1c(-c2cc3cc(Cl)ccc3[nH]2)[nH]c2cc(Br)ccc12 [Compound 183, 3-(6-Bromo-5′-chloro-1H,1′H-[2,2′-biindole]-3-carboxamido)propyl Acetate]",< 100,> 64,> 64,–,–
"Clc1cnc2nc(-c3cc4ccc(Br)cc4[nH]3)[nH]c2c1 [Compound 209, 2-(6-Bromo-1H-indol-2-yl)-6-chloro-1H-imidazo[4,5-b]pyridine]",–,> 64,> 64,–,–
"NC(=O)N1CCC(NCCNC(=O)c2c(-c3cc4cc(Cl)ccc4[nH]3)[nH]c3cc(Br)ccc23)CC1 [Compound 131, 6-bromo-N-(2-(1-carbamoylpiperidin-4-ylamino)ethyl)-5′-chloro-1H,1′H-2,2′-biindole-3-carboxamide]",–,> 64,64,–,–
"COc1ccc(NC(=O)Nc2nc3cc(Br)ccc3s2)cc1 [Compound 152, 1-(5-bromobenzo[d]thiazol-2-yl)-3-(4-methoxyphenyl)urea]",–,1,> 64,1,2
"O=C(O)CNC(=O)c1c(-c2cc3cc(Cl)ccc3[nH]2)[nH]c2cc(Br)ccc12 [Compound 204, (6-Bromo-5′-chloro-1H,1′H-[2,2′-biindole]-3-carbonyl)glycine]",< 100,64,> 64,–,–
"O=C(NCc1ccccc1)Nc1nc2cc(Br)ccc2s1 [Compound 158, 1-benzyl-3-(5-bromobenzo[d]thiazol-2-yl)urea]",–,2,> 64,1,2
"CC(C)(C)OC(=O)CCn1c(-c2cc3ccc(Br)cc3[nH]2)nc2cc(Cl)c(Cl)cc21 [Compound 214, tert-Butyl 3-(2-(6-bromo-1H-indol-2-yl)-5,6-dichloro-1H-benzo[d]imidazol-1-yl)propanoate]",–,> 64,> 64,–,–
"NC(=O)[C@@H]1CCCN1CCNC(=O)c1c(-c2cc3cc(Cl)ccc3[nH]2)[nH]c2cc(Br)ccc12 [Compound 120, (S)-6-Bromo-N-(2-(2-carbamoylpyrrolidin-1-yl)ethyl)-5′-chloro-1H,1′H-[2,2′-biindole]-3-carboxamide]",< 100,> 64,> 64,–,–
"COC(=O)c1c(NC(=O)Nc2ccc(Cl)cc2)[nH]c2cc(Br)ccc12 [Compound 181, Methyl 6-bromo-2-(3-(4-chlorophenyl)ureido)-1 H-indole-3-carboxylate]",–,> 64,> 64,–,–
"CC(C)[C@@H](C(=O)OCCCNC(=O)c1c(-c2cc3cc(Cl)ccc3[nH]2)[nH]c2cc(Br)ccc12)N(C)C [Compound 185, 3-(6-Bromo-5′-chloro-1H,1′H-[2,2′-biindole]-3-carboxamido)propyl Dimethyl-L-valinate]",< 100,> 64,> 64,–,–
"COC(CNC(=O)c1c(-c2cc3cc(Cl)ccc3[nH]2)[nH]c2cc(Br)ccc12)OC [Compound 134, 6-Bromo-5′-chloro-N-(2,2-dimethoxyethyl)-1H,1′H-[2,2′-biindole]-3-carboxamide]",–,> 64,> 64,–,–
"O=C(COc1cc2[nH]c(-c3cc4ccc(Br)cc4[nH]3)cc2cc1Cl)NS(=O)(=O)c1ccc(NC(=O)C(F)(F)F)cc1 [Compound 195, N-(4-(N-(2-((6′-Bromo-5-chloro-1H, 1′H-[2,2′-biindol]-6-yl)oxy)acetyl)sulfamoyl)phenyl)-2,2,2-trifluoroacetamide]",< 100,64,> 64,64,–
"O=C(Nc1ccc(Cl)c(C(F)(F)F)c1)Nc1nc2cc(Br)ccc2s1 [Compound 156, 1-(5-bromobenzo[d]thiazol-2-yl)-3-(4-chloro-3-(trifluoromethyl)phenyl)urea]",–,0.5,64,1,1
